Data set [1] has as its target T1, recombinant Trypanosome AOX (TAO) enzyme (Trypanosoma brucei brucei, UniProt Q26710).
T1 construct: made in house; host or cells: Escherichia coli (membrane fraction)
Briefly: TAO enzyme inhibition (quinol oxidase activity, ubiquinol-1 substrate). Particulars: TAO-expressing E. coli membrane fraction, 25° C., ubiquinol-1, absorbance at 278 nm. In kind it is biochemical, T. brucei brucei. How it is done: Escherichia coli membrane fractions that express TAO by a plasmid harboring TAO cDNA cloned from T. brucei brucei (Fukai, Comparative Biochemistry & Physiology, 124, 141-148, 1999) were used as a recombinant Trypanosome AOX (TAO) enzyme. 50 mM Tris-HCl (pH 7.5), TAO-expressing membrane fraction (0.35 ng), and […] of an inhibitor were mixed in a 1 mL cuvette, and the mixture was incubated at 25° C. for 4 minutes. Ubiquinol-1 as a substrate was then added to the mixture to initiated the reaction, and change in absorbance at 278 nm was monitored (Shimadzu UV-3000, molar absorption coefficient ε=15 cm^−1 mM^−1).

The target in data set [2] is Cryptosporidium cyanide insensitive oxidase (AOX), recombinant protein (cCpAOX) (Cryptosporidium parvum, UniProt Q761U6). Briefly: CpAOX enzyme inhibition. In kind it is biochemical. An excerpt: Cryptosporidium has found to have cyanide insensitive oxidase (AOX), and its inhibitory activity was observed using its recombinant protein (cCpAOX) produced in E. coli.
Sequence of Cryptosporidium cyanide insensitive oxidase (AOX), recombinant protein (cCpAOX) (Q761U6 entry or part of it): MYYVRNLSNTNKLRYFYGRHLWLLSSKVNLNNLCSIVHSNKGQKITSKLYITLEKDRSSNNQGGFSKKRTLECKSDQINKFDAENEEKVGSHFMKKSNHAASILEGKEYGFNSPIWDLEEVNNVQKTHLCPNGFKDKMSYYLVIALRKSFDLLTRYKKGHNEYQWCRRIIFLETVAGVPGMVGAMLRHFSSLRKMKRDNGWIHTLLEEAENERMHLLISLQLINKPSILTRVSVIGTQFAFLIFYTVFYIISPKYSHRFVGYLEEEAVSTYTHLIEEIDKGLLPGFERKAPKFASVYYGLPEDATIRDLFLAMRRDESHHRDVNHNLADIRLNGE
The subject of a further data set is T. b. rhodesiense IL1501. Kind of data set: Antiprotozoal effect, MIC measurement in HMI-9 culture. In kind it is cell-based. Particulars: Trypanosoma brucei, RHODESIENSE, 24 h, bloodstream forms, 18 + 6 hours culture. How it is done:
T. b. rhodesiense IL1501, the human infectious protozoan that causes acute symptoms, was used as a Trypanosomatid protozoan. The bloodstream forms of protozoan can be cultured in a HMI-9 culture medium (Hirumi, 1989). The protozoan was always cultured at a temperature of 37° C. in the presence of 5% CO2.
In a microtiter plate (96-well, FALCON 3072), HMI-9 culture medium and HMI-9 culture medium plus glycerol added to make a final concentration of 8.33 mM are separately prepared. 89 μL of the preparation are put into only the first well, and a 60 μL aliquot of each the other wells. 1 μL of a solution of AF or a AF derivative dissolved in DMSO was added to the first well, and was then suspended. A 30 μL aliquot of the suspension was then collected, was transferred to the second well, and was suspended. These operations were repeated in this order to prepare a three-fold dilution series of drug. A 40 μL aliquot of a protozoan culture was added to each well to make a final concentration of 5×10^4 cells/well (a final concentration of glycerol of 5 mM) followed by 18-hours culturing under conditions of 37° C. and 5% CO2. (For EC50 measurement, a 10 μL aliquot of Alamar Blue was added to each well), culturing was carried out under the same conditions for 6 more hours, surviving protozoans were visually observed with a microscope. The concentration at which no motile surviving protozoan was observed was defined as MIC.

The mark [3] stands for this setting: Glycerol (+), final concentration of glycerol of 5 mM.

Like-named read-outs stand apart in the source and are kept apart here.

The values that follow come from patent publication US9440913B2, “Dihydroxybenzene derivatives and antiprotozoal agent comprising same as active ingredient” (NAI INC., priority 2010, dated 2016).

T1 sequence (Q26710 whole entry): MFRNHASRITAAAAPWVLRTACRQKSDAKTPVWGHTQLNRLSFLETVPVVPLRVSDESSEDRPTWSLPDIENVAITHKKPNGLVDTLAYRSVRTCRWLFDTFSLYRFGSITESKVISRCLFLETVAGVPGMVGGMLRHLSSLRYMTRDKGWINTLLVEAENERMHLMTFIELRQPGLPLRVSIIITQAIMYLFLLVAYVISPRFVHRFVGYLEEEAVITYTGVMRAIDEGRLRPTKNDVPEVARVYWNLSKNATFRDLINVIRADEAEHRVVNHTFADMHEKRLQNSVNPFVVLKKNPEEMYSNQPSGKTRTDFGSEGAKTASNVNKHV

By IC50 is commonly meant the concentration at which inhibition is half-maximal. On to `Cc1c(Cl)c(O)c(CCCCCCCCOC(=O)C(C)C)c(O)c1C=O` [Compound 215-12-OCOiPr, 8-(3-Chloro-5-formyl-2,6-dihydroxy-4-methylphenyl)octyl isobutylate], for which the IC50 was 0.29 nM in data set [1] and 3.7 nM in data set [2] (recombinant protein produced in E. coli, read-out: CpAOX enzyme inhibition (IC50:nM)).

By MIC is commonly meant the least concentration at which growth counts as inhibited. The melting point is the temperature of the solid-liquid transition. With `CC(=O)OCCCCCCCCc1c(O)c(Cl)c(C)c(C=O)c1O` [Compound 215-11-OAc, 8-(3-Chloro-5-formyl-2,6-dihydroxy-4-methylphenyl)octyl acetate], the melting point was 68 °C. For the same compound, the IC50 in data set [1] is 0.6 nM. In the data set with T. b. rhodesiense IL1501 (setting [3]), the minimum inhibitory concentration (MIC) stood at 7.7 nM. The MIC in the data set with T. b. rhodesiense IL1501 (Glycerol (−)) amounted to 68 nM. Besides, the IC50 in data set [2] turned out to be 2.7 nM.

On to `Cc1c(Cl)c(O)c(CCC(C)CCCCOC(=O)C(C)(C)C)c(O)c1C=O` (stereo not drawn) [Compound 265-11-OPiv, 7-(3-Chloro-2,6-dihydroxy-5-formyl-4-methylphenyl)-5-methylheptyl pivalate], for which the 50% inhibitory concentration (IC50) was 0.36 nM in data set [1] and 2.3 nM in data set [2].

With `CCOC(=O)CCCCCCCCCCCc1c(O)c(Cl)c(C)c(C=O)c1O` [Compound 215-15-COOEt, Ethyl 12-(3-chloro-5-formyl-2,6-dihydroxy-4-methylphenyl)dodecanoate], the results for the IC50 in data set [1] and in data set [2] were 0.3 nM and 1.8 nM, respectively.

Compound `CCCCCC#CCc1c(O)c(Cl)c(C)c(C=O)c1O` [Compound 284-8, 3-Chloro-4,6-dihydroxy-5-(2-octynyl)-2-methylbenzaldehyde] had a melting point of 135 to 136 °C. Moreover, the half-inhibitory concentration (IC50) in data set [1] was 0.3 nM. The MIC with T. b. rhodesiense IL1501 (setting [3]) was 9.6 nM. Moreover, the MIC in the data set with T. b. rhodesiense IL1501 (Glycerol (−)) came to 92 nM. Besides, in data set [2], the IC50 is 1.9 nM.

Turning to `Cc1c(Cl)c(O)c(C/C=C/CCCCCOC(=O)C(C)(C)C)c(O)c1C=O` [Compound 206-12-OPiv, (E)-8-(3-Chloro-5-formyl-2,6-dihydroxy-4-methylphenyl)-6-octenyl pivalate], the IC50 in data set [1] is 0.27 nM; in data set [2] it was 2.1 nM. The minimal inhibitory concentration (MIC) in the data set on T. b. rhodesiense IL1501 (setting [3]) was determined as 0.006 nM; in the data set with T. b. rhodesiense IL1501 (Glycerol (−)), 0.024 nM.

As to `Cc1c(Cl)c(O)c(CCCCCCC(C)C)c(O)c1C=O` [Compound 279-8, 3-Chloro-4,6-dihydroxy-2-methyl-5-(7-methyloctyl)benzaldehyde], the melting point is 93 to 94 °C. Besides, the IC50 in data set [1] was 0.22 nM. Moreover, the minimum inhibitory concentration (MIC) in the data set on T. b. rhodesiense IL1501 (setting [3]) is 7.3 nM. Besides, the MIC in the data set with T. b. rhodesiense IL1501 (Glycerol (−)) worked out at 12 nM. In addition, in data set [2], the half-inhibitory concentration (IC50) came to 2.1 nM.

`COC(=O)CCCCCCCCCc1c(O)c(Cl)c(C)c(C=O)c1O` [Compound 215-12-COOMe, Methyl 10-(3-chloro-5-formyl-2,6-dihydroxy-4-methylphenyl)decanoate] returned a melting point of 87 to 88 °C. Also, in data set [1], the IC50 turned out to be 0.25 nM. Further, the MIC in the data set with T. b. rhodesiense IL1501 (setting [3]) came to 5.7 nM. Also, the MIC with T. b. rhodesiense IL1501 (Glycerol (−)) is 38 nM. Further, the IC50 in data set [2] amounted to 1.5 nM.

Regarding `Cc1c(Cl)c(O)c(CCCCCCCCCC(=O)OC(C)C)c(O)c1C=O` [Compound 215-13-COOiPr, Isopropyl 10-(3-chloro-2,6-dihydroxy-5-formyl-4-methylphenyl)decanoate], the melting point worked out at 49 °C. For the same compound, the IC50 in data set [1] was determined as 0.43 nM. Also, the MIC in the data set on T. b. rhodesiense IL1501 (setting [3]) worked out at 0.061 nM. Further, the MIC with T. b. rhodesiense IL1501 (Glycerol (−)) came to 1.7 nM. In addition, in data set [2], the half-inhibitory concentration (IC50) came to 2.2 nM.

Consider `COC(=O)/C(C)=C/CC/C(C)=C/Cc1c(O)c(Cl)c(C)c(C=O)c1O` [Compound 275-10-COOMe, Methyl (2E,6E)-8-(3-Chloro-5-formyl-2,6-dihydroxy-4-methyl)phenyl-2,6-dimethyl-2,6-octadienate], for which the IC50 in data set [1] is 0.38 nM; in data set [2], 1.2 nM. Moreover, the MIC in the data set with T. b. rhodesiense IL1501 (setting [3]) was found to be 1.1 nM; in the data set with T. b. rhodesiense IL1501 (Glycerol (−)), 8.7 nM.

As to `CC(/C=C/C(=O)C(C)(C)C)=C\CC/C(C)=C/Cc1c(O)c(Cl)c(C)c(C=O)c1O` [Compound 273-12, 3-Chloro-4,6-dihydroxy-2-methyl-5-[(2E,6E,8E)-3,7,11,11-tetramethyl-10-oxo-2,6,8-dodecatrienyl]benzaldehyde], the IC50 in data set [1] amounted to 0.23 nM; in data set [2], 2.2 nM. The minimum inhibitory concentration (MIC) in the data set with T. b. rhodesiense IL1501 (setting [3]) came out at 1.9 nM; in the data set with T. b. rhodesiense IL1501 (Glycerol (−)), 3.7 nM.

Compound `CCCCC/C(C)=C\Cc1c(O)c(Cl)c(C)c(C=O)c1O` [Compound 264-8-z, (Z)-3-Chloro-4,6-dihydroxy-2-methyl-5-(3-methyl-2-octenyl)benzaldehyde] came in with a melting point of 157 to 158 °C. Besides, the half-inhibitory concentration (IC50) in data set [1] stood at 0.18 nM. For the same compound, in the data set on T. b. rhodesiense IL1501 (setting [3]), the MIC stood at 0.17 nM. The MIC with T. b. rhodesiense IL1501 (Glycerol (−)) was 0.25 nM. Further, the IC50 in data set [2] came to 1.4 nM.

The compound `Cc1c(Cl)c(O)c(/C=C/CCCCCCCOC(=O)C(C)(C)C)c(O)c1C=O` [Compound 200-13-OPiv, (E)-9-(3-Chloro-5-formyl-2,6-dihydroxy-4-methylphenyl)-8-nonenyl pivalate] showed a melting point of 69 to 70 °C. In data set [1], the IC50 came out at 0.32 nM. For the same compound, in data set [2], the IC50 worked out at 2.2 nM.

Take `CCC(=O)OCCCCCCCCc1c(O)c(Cl)c(C)c(C=O)c1O` [Compound 215-12-OCOEt, 8-(3-Chloro-5-formyl-2,6-dihydroxy-4-methylphenyl)octyl propionate]: the melting point is 63 to 64 °C. Also, in data set [1], the IC50 was 0.29 nM. Further, in data set [2], the IC50 is 2.2 nM.

As to `Cc1c(Cl)c(O)c(CCCCCCCCCC(=O)O)c(O)c1C=O` [Compound 215-11-COOH, 10-(3-Chloro-5-formyl-2,6-dihydroxy-4-methylphenyl)decanoic acid], the melting point lay within 154 to 156 °C. Besides, the half-maximal inhibitory concentration (IC50) in data set [1] is 1.5 nM. In addition, the MIC in the data set with T. b. rhodesiense IL1501 (setting [3]) is 1500 nM. Moreover, the MIC in the data set with T. b. rhodesiense IL1501 (Glycerol (−)) amounted to 4000 nM. For the same compound, the IC50 in data set [2] is 2.1 nM.

As for `COC(CC(=O)C(C)(C)C)/C(C)=C/CC/C(C)=C/Cc1c(O)c(Cl)c(C)c(C=O)c1O` (stereo not drawn) [Compound 271-12], the IC50 was determined as 0.22 nM in data set [1] and 1.6 nM in data set [2]. Moreover, the MIC in the data set with T. b. rhodesiense IL1501 (setting [3]) was found to be 0.0023 nM; in the data set on T. b. rhodesiense IL1501 (Glycerol (−)), 0.056 nM.

For the compound `CC(C)=CCC/C=C/Cc1c(O)c(Cl)c(C)c(C=O)c1O` [Compound 278-8, (E)-3-Chloro-4,6-dihydroxy-2-methyl-5-(7-methyl-2,6-octadienyl)benzaldehyde], the values for the 50% inhibitory concentration (IC50) in data set [1] and in data set [2] were 0.25 nM and 1.2 nM, respectively. Also, the MIC in the data set on T. b. rhodesiense IL1501 (setting [3]) was 7.4 nM; in the data set on T. b. rhodesiense IL1501 (Glycerol (−)), 14 nM.

`Cc1c(Cl)c(O)c(CCCCCCCCCC(=O)OC(C)(C)C)c(O)c1C=O` [Compound 215-13-COOBu, tert-Butyl 10-(3-chloro-2,6-dihydroxy-5-formyl-4-methylphenyl)decanoate]: the IC50 came out at 0.25 nM in data set [1] and 0.92 nM in data set [2]. In addition, the MIC with T. b. rhodesiense IL1501 (setting [3]) turned out to be 1.2 nM; with T. b. rhodesiense IL1501 (Glycerol (−)), 16 nM.

`Cc1c(Cl)c(O)c(CCCCCCCCCCCC(=O)OC(C)C)c(O)c1C=O` [Compound 215-15-COOiPr, Isopropyl 12-(3-chloro-5-formyl-2,6-dihydroxy-4-methylphenyl)dodecanoate] showed a melting point of 82 to 83 °C. In addition, the IC50 in data set [1] turned out to be 0.32 nM. In addition, in data set [2], the IC50 is 2.5 nM.

As to `Cc1c(Cl)c(O)c(CCCCCCCC(=O)Oc2c3ccccc3cc3ccccc23)c(O)c1C=O` [Compound 215-18-Anthra, 9-Anthryl 8-(3-chloro-5-formyl-2,6-dihydroxy-4-methylphenyl)octanate], the IC50 in data set [1] came to 0.5 nM; in data set [2], 2.6 nM. For the same compound, the MIC with T. b. rhodesiense IL1501 (setting [3]) worked out at 3.8 nM; in the data set on T. b. rhodesiense IL1501 (Glycerol (−)), 6.6 nM.
